Test results taken from patent publication US20220380430A1, “Non-Transgenic Functional Rescue of Neuropeptides” (Worcester Polytechnic Institute, priority 2021, published 2022).
“Also recorded” adds a separate entry of the source. No end group written: not given here.

Key:
NPR-10B = target: T1, NPR-10B (Caenorhabditis elegans, UniProt Q6EUU1); assay: In vitro GPCR activation assay (CHO-K1 cells, aequorin, human Gα16), NPR-10B; type: cell-based, C. elegans; details: title: NPR-10B; calcium/aequorin luminescence in transfected CHO-K1 cells
T1 sequence (Q6EUU1 1-362): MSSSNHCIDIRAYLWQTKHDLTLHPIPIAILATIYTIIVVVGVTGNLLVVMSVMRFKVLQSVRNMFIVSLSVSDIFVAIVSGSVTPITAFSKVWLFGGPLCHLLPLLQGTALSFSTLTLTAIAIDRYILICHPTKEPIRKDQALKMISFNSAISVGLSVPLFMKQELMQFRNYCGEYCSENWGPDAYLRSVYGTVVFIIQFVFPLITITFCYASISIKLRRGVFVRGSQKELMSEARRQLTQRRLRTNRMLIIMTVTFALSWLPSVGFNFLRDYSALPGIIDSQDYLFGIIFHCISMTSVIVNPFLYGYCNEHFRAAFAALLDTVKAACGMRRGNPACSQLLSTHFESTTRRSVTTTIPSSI
Protocol: Using Chinese hamster ovarian (CHO) cell cultures stably expressing the promiscuous G protein, Gα16, and the calcium reporter, aequorin, it was observed that both isoforms of NPR-10 are activated by seven of the ten FLP-3 peptides, with half-maximal effective concentrations (EC50) in the nM range (FIG. 14A-FIG. 14H, Table V). […] This peptide contains an R-to-K mutation within the C-terminal motif, which may explain the lack of receptor activation.
(§1) The GPCR activation assay was performed as previously described Van Sinay, E. et al. Proc. Natl Acad. Sci. USA 114, E4065-e4074 (2017) and Peymen, K. et al. PLoS Genet. 15, e1007945 (2019). Briefly, npr-10 and frpr-16 cDNAs were cloned into the pcDNA3.1 TOPO expression vector (Thermo Fisher Scientific). A CHO-K1 cell line (PerkinElmer, ES-000-A24) stably expressing apo-aequorin targeted to the mitochondria (mtAEQ) and human Gα16 was transiently transfected with the receptor cDNA construct or the empty pcDNA3.1 vector using Lipofectamine LTX and Plus reagent (Thermo Fisher Scientific). Cells were shifted to 28° C. one day later and allowed to incubate for 24 h. On the day of the assay, cells were collected in BSA medium (DMEM/Ham's F12 with 15 mM HEPES, without phenol red, 0.1% BSA) and loaded with […] coelenterazine h (Thermo Fisher Scientific) for 4 h at room temperature. The incubated cells were then added to synthetic peptides dissolved in DMEM/BSA, and luminescence was measured for 30 s at […] using a Mithras LB940 (Berthold Technologies) or MicroBeta LumiJet luminometer (PerkinElmer). After 30 s of readout, 0.1% triton X-100 was added to lyse the cells, resulting in a maximal calcium response that was measured for 10 s. After initial screening, concentration-response curves were constructed for HPLC-purified FLP-3 peptides by subjecting the transfected cells to each peptide in a concentration range from 1 pM to 10 μM. Cells transfected with an empty vector were used as a negative control. Assays were performed in triplicate on at least two independent days. Concentration-response curves were fitted using Prism v. 7 (nonlinear regression analysis with a sigmoidal concentration-response equation).

FRPR-16 = target: T2, FRPR-16 (Caenorhabditis elegans, UniProt Q21957); assay: In vitro GPCR activation assay (CHO-K1 cells, aequorin, human Gα16), FRPR-16; type: cell-based, C. elegans; details: calcium/aequorin luminescence in transfected CHO-K1 cells
T2 sequence (Q21957 1-340): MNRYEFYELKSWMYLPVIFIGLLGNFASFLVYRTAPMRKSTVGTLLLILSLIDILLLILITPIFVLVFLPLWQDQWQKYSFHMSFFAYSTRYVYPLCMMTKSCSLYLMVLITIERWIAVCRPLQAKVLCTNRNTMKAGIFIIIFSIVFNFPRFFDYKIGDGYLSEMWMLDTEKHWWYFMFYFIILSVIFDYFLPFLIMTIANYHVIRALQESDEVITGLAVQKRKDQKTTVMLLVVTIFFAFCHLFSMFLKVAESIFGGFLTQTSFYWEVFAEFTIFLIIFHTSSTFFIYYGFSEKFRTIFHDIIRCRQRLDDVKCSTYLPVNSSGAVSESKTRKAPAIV
Protocol: as §1

flp-3 lof males [1] = assay: Drop avoidance assay to ascr #8 after FLP-3 peptide rescue-by-feeding; type: in vivo, C. elegans; details: flp-3 lof males raised on peptide; 1 μM ascr #8; in words
Protocol: To identify which FLP-3 peptides are required for male avoidance of ascr #8, a peptide feeding approach https://www.nature.com/articles/s42003-021-02547-7-ref-CR59 was adopted, similar to RNAi feeding (FIG. 16A). Using Gateway Cloning technology, FLP-3 peptide coding sequences were inserted into a bacterial expression vector. As a control, first the FLP-3 peptides were tested that are still encoded in the ok3625 allele which are insufficient to drive the proper ascr #8 response in vivo: FLP-3-1 (SPLGTMRFamide) (SEQ ID NO: 10) and FLP-3-4 (NPLGTMRFamide) (SEQ ID NO: 11). Then flp-3 lof animals were reared on lawns of bacteria expressing the rescue constructs, and their progeny were assayed for avoidance (FIG. 16B-FIG. 16D).
Assays were performed as described previously in Chute, C. D. & Srinivasan, J. Semin. Cell Dev. Biol. 33, 18-24 (2014); Chute, C. D. et al. Nat. Commun. 10, 3186 (2019); and Hilliard, M. A. et al., EMBO J. 23, 1101-1111 (2004). Fifty to sixty L4 worms were segregated by sex and stored at 20° C. for 5 h to overnight to be assayed as young adults. One to four hours prior to the assay, the lids of unseeded plates were tilted to allow any excess moisture to evaporate off the plates. At the time of the assay, 10 or more animals were transferred onto each of the dried, unseeded plates. A drop of either water or 1 μM ascr #8 was placed on the tail of forward moving animals, and their response was scored as either an avoidance response, or no response. The total number of avoidances was divided by the total number of drops to generate an avoidance index for that plate. This was repeated for at least 10 plates over at least three different days.
SCRAMBLE control or FLP-3 peptide constructs were grown overnight in LB media containing […] ampicillin at 37° C. and diluted to an OD600 of 1.0 prior to seeding on NGM plates containing […] ampicillin and 1 mM IPTG. The 75 μL lawn was left to dry and grow overnight at room temperature before three L4 animals were placed on the plates. Males were selected for testing in the same manner as described above but were isolated onto plates also seeded with the same peptide on which they had been reared. Animals were then assayed using either the avoidance assay or single worm assay.

flp-3 lof males [2] = assay: Single worm attraction assay (SWAA) to ascr #8 after FLP-3 peptide rescue-by-feeding; type: in vivo, C. elegans; details: flp-3 lof males raised on peptide; in words
Protocol: The outer forty wells of a 48-well suspension culture plate (Olympus Plastics, Cat #: 25-103) were seeded with 200 μL of standard NGM agar. To prepare the plates for the assay, they were acclimated to room temperature, at which point each well was seeded with 65 μL of OP50 E. coli. The assay plates were then transferred to a 37° C. incubator with the lid tilted for 4 h to allow the bacterial culture to dry on the agar. Once the bacterial culture dried, the lid was replaced the plate was stored at 20° C. until used in the assay. Fifty to sixty L4 worms were segregated by sex and stored at 20° C. for 5 h to overnight to be assayed as young adults. 0.8 μL of either vehicle control or ascaroside #8 was placed in the center of the well corresponding to that condition within the quadrant being tested, following a random block design (FIG. 11A). A single worm was placed in each of the 10 wells to be assayed, and the plate was transferred to a light source and camera and recorded for 15 m. This process was repeated for all four quadrants. Each strain and sex were assayed over five plates assayed on at least three different days. Raw dwell time values were calculated by subtracting the time a worm exited the cue (center of the well in spatial controls), from the time it entered, as in the SRA. This was determined per visit, and the average dwell time was calculated for each animal in the quadrant. Averages of the four-quadrant means were determined per plate, and a minimum of five plates were assayed per strain/condition. The mean raw dwell time across five plates was calculated and used for statistical analyses and graphical display. The average dwell time in the ascaroside was divided by the average dwell time within the vehicle control per plate to generate a fold-change. To transform the data, the log of this fold-change was taken, and the average log(fold-change) was used for statistical analyses and graphical display. […]

ins-6 lof worms = assay: NaCl chemotaxis assay after rescue-by-feeding; type: in vivo, C. elegans; details: 750 mM NaCl, in words
Protocol: All animals were maintained on bacterial lawns of OP50 E. coli, at 20° C., on NGM agar plates until the start of experiments. Mutant or control animals were transferred onto lawns of DH5α E. coli expressing either scramble peptide or the rescue peptide-of-interest on NGM plates containing […] AMP and 1 mM IPTG. Animals were reared on the peptide-expressing lawns for at least 48 hours at 20° C. before assaying for rescue of mutant phenotype at the appropriate developmental stage.
A salt chemotaxis assay was performed as previously described in Leinwand, S. G. & Chalasani, S. H. Nature neuroscience 16, 1461-1467 (2013); Bargmann, C. I. & Horvitz, H. R. Neuron 7, 729-742 (1991) to test the functionality of ins-6 after rescue-by-feeding. Wild-type (N2) and ins-6 worms were fed either scramble or INS-6 peptide passing 4-6 L4 larval onto an NGM plate containing […] AMP and 1 mM IPTG with 75 μL of peptide OD600=1.0. These worms were grown at 20° C. for about 4 days until the progeny of the initial L4 worms were young adults.
The day prior to testing, a thin, 10 mL layer of agar was added to 10 cm petri dishes to generate a 10 cm Chemotaxis Plates (5 mM KPO4 (pH 6.0), 1 μM MgSO4, 1 μM CaCl2), 20 g/L agar, and 8 g/L Difco Nutrient Broth). To prepare the “high salt” plates, 750 mM NaCl was added prior to plate pouring. The high salt plate were stored at 4° C. for up to one month, while the Chemotaxis Plates were made one day prior to testing. To create the high and low salt plugs, the back end of a Pasteur pipette was used to punch a 5 mm plug out of each plate. These 2 plugs were placed on opposite edges of the plate. A 10 mm radius was be drawn around the location of the plugs (FIG. 1). Plates were stored, lightly covered, overnight at room temperature (˜20° C., <40% humidity). […]
Young adult hermaphrodites are tested in the Chemotaxis Assay with no more than three replicates per day, over a minimum of three days, with 100-200 worms/assay plate. The […] Chemotaxis Index (CI) was calculated as follows: […]

EC50 (NPR-10B) | EC50 (FRPR-16) | Substance | rescue of avoidance phenotype to ascr #8 (Avoidance Index) (flp-3 lof males [1]) | rescue of attraction to ascr #8 (dwell time, log(fold-change)) (flp-3 lof males [2]) | rescue of NaCl chemotaxis (ins-6 lof worms; ins-6 lof worms fed peptide) | chemotaxis on overexpression by feeding (ins-6 lof worms; wild-type animals fed INS-6)
760 nM | 88.3 nM | NPENDTPFGTMRF-NH2 [FLP-3-9, NPENDTPFGTMRFamide] | lack of avoidance to ascr #8; also recorded: undo the Avoidance phenotype associated with the flp-3 mutation | full rescue of their ability to be attracted to the cue; also recorded: restores the attraction to wild-type | – | –
366 nM | 31.7 nM | TPLGTMRF-NH2 [FLP-3-2, TPLGTMRFamide] | able to abolish the avoidance phenotype; also recorded: undo the Avoidance phenotype associated with the flp-3 mutation | not able to restore the animal's ability to be attracted to ascr #8; also recorded: seems to make the animals less attracted to the cue | – | –
– | – | VPAPGETRACGRKLISLVMAVCGDLCNPQEGKDIATECCGNQCSDDYIRSACCP-NH2 (cysteine pairing not given here) [INS-6] | – | – | complete rescue of NaCl chemotaxis; also recorded: restores the Chemotaxis Index at a level similar to the canonical transgenic rescue; also recorded: complete restoration of attraction to high salt concentration | does not result in changes in attraction towards 750 mM NaCl; also recorded: does not affect chemotaxis in wild type animals; also recorded: slight defects in CI towards high salt
